Read-outs that look alike come from different tables or passages of the source.

What is called IC50 is the concentration needed to halve the response being measured. One may read the AUC(0-inf) as the area under the concentration-time curve extrapolated to infinity. The low end stands for low exposure, the high end for high exposure. The AUC(0-t) is exposure summed from dosing to a finite time, without extrapolation to infinity. A lower AUC(0-t) goes with less exposure. As usually defined, the clearance is the volume of plasma or blood freed of the substance per unit of time. Read a high clearance as a high capacity for elimination. What is called half-life is the time needed for the level to fall by half in the phase considered. A lower half-life goes with rapid decline. One may read the bioavailability as the share of a dose that reaches the circulation, judged against a reference dose that is usually intravenous. Low values mean poor availability, high ones good availability. One may read the Cmax as the maximum level reached in the sampled fluid or tissue. As usually defined, the Tmax is the time from dosing to the highest level.

The target in series [1] is T1, KRAS G12C (Homo sapiens, UniProt P01116, G12C). The series can be described thus: KRAS G12C/SOS1 nucleotide exchange assay (Bodipy-GDP to GTP exchange). The conditions noted are these: SOS1-mediated Bodipy-GDP/KRAS G12C exchange; dRFU analysis method for covalent inhibitors; 30 min pre-incubation at RT; 0.5% DMSO. More on the design: KRAS G12C or KRAS G12D (aa 2-169, expressed in E. coli); His-tag (TEV cleavable) (N); purchased Reaction Biology Corporation (RBC), which ran the assay MSC-11-502 (SOS1 only; none given for KRAS); host or cells: E. coli. The format is biochemical. On the procedure:
(§1) The biological activity of the Examples was determined in a KRAS
(§2) The assay evaluates the SOS1-mediated Bodipy-GDP to GTP exchange observed with KRAS G12C and KRAS G12D.
(§3) Reaction Buffer: 40 mM HEPES 7.4, 10 mM MgCl2, 1 mM DTT 0.002% Triton X100, 0.5% DMSO.
• 1. Deliver 10 μL of 1.5× KRAS solution in freshly prepared reaction buffer to reaction wells. • 2. Deliver compounds in 100% DMSO into buffer using acoustic technology (Echo550; nanoliter range). • 3. Incubate compounds with KRAS for 30 minutes at room temperature. • 4. Prepare 3× (SOS1+GTP) solution in reaction buffer. • 5. Deliver 5 μL of SOS1+GTP solution into reactions wells (deliver GTP only to column 1 for no SOS1 control). • 6.
Data Analysis: The fluorescence data was normalized using the equation below and fitted to “one phase exponential decay” equation using GraphPad prism software. The plateau was fixed to zero (use for non-covalent inhibitors) and rate ×1000 was used to calculate the IC50 values.
(§4) where Yraw is defined as fluorescence at time t, Ao is the average initial fluorescence with no SOS1, and Mis the minimum fluorescence at the end of the reaction at the maximum SOS1.
The background subtracted signals (no SOS1 protein wells were used as background) were converted to % activity relative to DMSO controls. Data was analyzed using GraphPad Prism 4 with “sigmoidal dose-response (variable slope)”; 4 parameters with Hill Slope. The constraints were bottom (constant equal to 0) and top (must be less than 120).
Target sequence in this assay (P01116 2-169 G12C): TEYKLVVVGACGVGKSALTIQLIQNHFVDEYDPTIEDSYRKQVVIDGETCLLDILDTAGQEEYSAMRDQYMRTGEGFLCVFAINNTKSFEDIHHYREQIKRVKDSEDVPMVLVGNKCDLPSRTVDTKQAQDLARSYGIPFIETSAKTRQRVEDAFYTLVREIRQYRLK

The test system of a further series is MIA PaCa-2 cells. Briefly: CellTiter-Glo viability assay. The format is cell-based. The conditions noted are these: Homo sapiens, 72 hours, read-out: CTG Assay IC50 Values. On the technique in general: In ATP-based viability assays light output follows the ATP content of the culture.
Series [2] in a line: PK profile in male CD1 mice. The format is in vivo. The conditions noted are these: for MRT inf: read-out: MRT0-inf; for MRT last: read-out: MRT0-last. The source says:
PK Profile in male CD1 mice:

Series [3] deals with T1, KRAS G12C. The series can be described thus: NanoBRET target engagement cellular assay in transiently transfected HEK293 cells. The conditions noted are these: RAS tracer K2 1 μM, 2 hours at 37° C. Set-up: expressed in transfected cells; host or cells: HEK293, transiently transfected. The format is cell-based. On the procedure: KRAS G12C cellular activity was determined in a target engagement cellular assay (NanoBRET™) in transiently transfected HEK293 cells by Reaction Biology Corporation (RBC), 1 Great Valley Parkway, Suite 2 Malvern, PA 19355, USA. HEK293 were cultivated to 70-80% confluence prior to the assay followed by trypsinizing and collection of the cells. BI-2852 was used as the KRAS G12C reference compound. Each test compound solution was delivered from a compound source plate to the wells of 384-well white non-binding surface plate by an Echo 550 prior to the assay.
A 10 μg/mL solution of DNA in Opti-MEM was prepared without serum that consisted of 1 μg LgBiT®-KRAS (G12C)-NanoLuc fusion vector, 1 μg SmBIT®-KRAS (G12C)-NanoLuc fusion vector and 8 μg transfection carrier DNA. This mixture was subsequently treated with 30 μL of FuGENE HD Transfection Reagent into each milliliter of DNA mixture to form a lipid: DNA complex. The resulting mixture was then gently mixed by inversion and incubated at ambient temperature for 20 minutes to allow complexes to form. A mixture of 1 part of lipid: DNA complex with 20 parts of suspended HEK293 cells was added to a sterile conical tube and mixed gently by inversion. The cells+lipid: DNA complex mixture was then added to a sterile tissue culture dish and incubated for 24 hours. The medium was removed from the dish via aspiration followed by trypsinizing and allowing the cells to dissociate from the tissue culture dish. The trypsin was subsequently neutralized by using medium containing serum and centrifugation at 200×g for 5 minutes to pellet the cells in the conical tube. The cell density was adjusted to 2×10^5 cells/mL in Opti-MEM without phenol red. One part of Complete 20× NanoBRET™ RAS Tracer Reagent was dispensed to 20 parts of cells in the conical tube and mixed gently by inversion. The resulting cell suspension was dispensed into a white, 384-well NBS plate containing the test compounds (starting at 10 μM, 10-dose with 3-fold dilution) at 37° C., 5% CO2 for 2 hours. The final concentration for RAS tracer K2 was 1 μM. […]
Freshly prepared substrate solution (3×) in the assay medium was added to each well of the 384-well NBS plate and incubated for 3 minutes at room temperature. The donor emission wavelength (460 nm) and acceptor emission wavelength (600 nm) were measured using an Envision 2104 plate reader. […] The BRET ratio was calculated using the following equation: BRET Ratio= [(Acceptor sample÷Donor sample)−(Acceptor no-tracer control[…]Donor no-tracer control)]. The normalized BRET response (%) was calculated by the following equation: (BRET ratio of test compound/BRET ratio of DMSO control)*100%. The IC50 curves were plotted and IC50 values were calculated with GraphPad Prism 4 based on a sigmoidal dose-response equation.
Target sequence in this assay (P01116 1-186 isoform P01116-2 G12C limits assumed): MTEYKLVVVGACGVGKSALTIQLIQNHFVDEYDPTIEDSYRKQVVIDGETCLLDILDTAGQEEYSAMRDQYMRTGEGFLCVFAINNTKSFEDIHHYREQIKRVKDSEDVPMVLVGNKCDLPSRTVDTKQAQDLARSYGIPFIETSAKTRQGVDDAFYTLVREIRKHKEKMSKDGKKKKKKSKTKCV
Target sequence in this assay (P01116 1-186 isoform P01116-2 G12C limits assumed): as above

Another series deals with T2, KRAS G12D (Homo sapiens, UniProt P01116, G12D).
T2 construct: KRAS G12C or KRAS G12D (aa 2-169, expressed in E. coli); His-tag (TEV cleavable) (N); purchased Reaction Biology Corporation (RBC), which ran the assay MSC-11-502 (SOS1 only; none given for KRAS); host or cells: E. coli
T2 sequence (P01116 2-169 G12D): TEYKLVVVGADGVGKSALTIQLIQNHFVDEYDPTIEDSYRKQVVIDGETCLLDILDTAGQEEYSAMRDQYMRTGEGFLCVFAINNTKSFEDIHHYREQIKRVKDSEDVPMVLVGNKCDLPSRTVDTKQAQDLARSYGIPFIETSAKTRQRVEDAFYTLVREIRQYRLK
Briefly: KRAS G12D/SOS1 nucleotide exchange assay (Bodipy-GDP to GTP exchange). The settings on record: SOS1-mediated Bodipy-GDP/KRAS G12D exchange; rate constant method (plateau = 0) for reversible inhibitors; 30 min pre-incubation at RT; 0.5% DMSO. The format is biochemical. How it is done: as §1, §2
The compound pre-incubation time was 30 min at RT and the curve fits were performed when the activities at the highest concentration of compounds were less than 65%.
as §3
• 1. Deliver 10 μL of 1.5× KRAS solution in freshly prepared reaction buffer to reaction wells. • 2. Deliver compounds in 100% DMSO into buffer using acoustic technology (Echo550; nanoliter range). • 3. Incubate compounds with KRAS for 30 minutes at room temperature. • 4. Prepare 3× (SOS1+GTP) solution in reaction buffer. • 5. […]
Data Analysis: The fluorescence data was normalized using the equation below and fitted to “one phase exponential decay” equation using GraphPad prism software. […]
as §4
The background subtracted signals (no SOS1 protein wells were used as background) were converted to % activity relative to DMSO controls. Data was analyzed using GraphPad Prism 4 with “sigmoidal dose-response (variable slope)”; 4 parameters with Hill Slope. […]

Setting [4] is: 3 mg/kg, i.v., single dose, mean plasma.
The mark [5] stands for this setting: 30 mg/kg, p.o., single dose, mean plasma.
The mark [6] stands for this setting: mouse, iv, 3 mg/kg, i.v., single dose, mean plasma.
Setting [7] is: mouse, iv, 3 mg/kg, single dose, mean plasma.
Where [8] appears, read: mouse, po, 30 mg/kg, p.o., single dose, mean plasma.
Where [9] appears, read: mouse, po, 30 mg/kg, single dose, mean plasma.

Experimental for MIA PaCa-2 cells: The reference compound staurosporine was purchased from Sigma-Aldrich (Saint Louis, MI). CellTiter-Glo® 2.0 Luminescent cell viability assay reagent was purchased from Promega (Madison, WI). MIA PaCa-2 cell line was purchased from American Type Culture Collection (Manassas, VA). MIA PaCa-2 cells were cultured in DMEM containing 10% FBS, 2.5% horse serum, 100 μg/ml of penicillin and 100 μg/ml of streptomycin. Cultures were maintained at 37° C. in a humidified atmosphere of 5% CO2 and 95% air.
Test compounds and reference compound, staurosporine, were diluted in DMSO solution with 10-dose and 3-fold dilution in a source plate starting at 10 mM. • 2. 25 nL of test compounds or 25 nL of staurosporine was delivered from the source plate to each well of the 384-well cell culture plate by Echo 550. • 3. 25 μL of culture media containing 2000 cells was added to each of the wells of the cell culture plate in duplicate. • 4. The cells were incubated with the compounds at 37° C., 5% CO2 for 72 hours. • 5. […] Luminescence was recorded by Envision 2104 Multilabel Reader (PerkinElmer, Santa Clara, CA). The number of viable cells in culture was determined based on quantitation of the ATP present in each culture well. • 8. The IC50 curves were plotted and IC50 values were calculated using the GraphPad Prism 4 program based on a sigmoidal dose-response equation

Compound `C=C(F)C(=O)N1CCN(c2cc(OC[C@@H]3CCCN3C)nc3cc(-c4cccc5cccc(Cl)c45)cnc23)C[C@@H]1CC#N` [Example 2, 2-((S)-4-(7-(8-Chloronaphthalen-1-yl)-2-(((S)-1-methylpyrrolidin-2-yl)methoxy)-1,5-naphthyridin-4-yl)-1-(2-fluoroacryloyl)piperazin-2-yl)acetonitrile] returned a half-maximal inhibitory concentration (IC50) on KRAS G12C [1] of 130 nM.

`C=CC(=O)N1CCN(c2cc(OCC34CCCN3CCC4)nc3cc(-c4cccc5cccc(Cl)c45)cnc23)C[C@@H]1CC#N` [Example 5, (S)-2-(1-acryloyl-4-(7-(8-chloronaphthalen-1-yl)-2-((tetrahydro-1H-pyrrolizin-7a(5H)-yl)methoxy)-1,5-naphthyridin-4-yl)piperazin-2-yl)acetonitrile] came in with an IC50 against KRAS G12C [1] of 38 nM. In the series with MIA PaCa-2 cells, the IC50 worked out at 2880 nM. In series [2] (setting [4]), this compound returned an AUCExtra of 2.52%, an AUMCExtra of 14.3% and a Tlast of 8.00 h. Further, in series [2] (setting [5]), the AUCExtra came out at 0.315%, the AUMCExtra is reported as 1.85% and the Tlast is listed as 24.0 h. In series [2] (setting [6]), the MRT inf was 1.77 h and the MRT last stood at 1.56 h. Besides, the Vd in series [2] (mouse, iv, 3 mg/kg, i.v., single dose, mean plasma, read-out: Vdss) turned out to be 7.7 L/kg. Further, in series [2] (setting [7]), the AUC(0-inf) was found to be 691 ng·h/mL, the exposure AUC(0-t) turned out to be 673 ng·h/mL, the C0 stood at 800 ng/mL and the clearance stood at 72.4 mL/min/kg. In series [2] (setting [7]), this compound showed a half-life of 85.2 min. Also, the bioavailability in series [2] (mouse, plasma, oral, 30 mg/kg, p.o., single dose vs 3 mg/kg i.v.) came out at 21.7%. For the same compound, in series [2] (setting [8]), the MRT inf was determined as 4.79 h and the MRT last worked out at 4.72 h. Moreover, in series [2] (setting [9]), the total exposure AUC(0-inf) turned out to be 1500 ng·h/mL, the area under the curve AUC(0-t) was determined as 1500 ng·h/mL, the Cmax amounted to 249 ng/mL and the Tmax turned out to be 1 h. The compound further had a half-life in series [2] (setting [9]) of 171 min. On KRAS G12C [3], this compound gave an IC50 of under 0.5 nM.

`CC(=O)c1c(F)ccc2cc(O)cc(-c3cnc4c(N5C[C@H]6CC[C@@H](C5)N6)cc(OC[C@@]56CCCN5C[C@H](F)C6)nc4c3)c12` [Example 3, 1-(8-(8-((1R,5S)-3,8-Diazabicyclo[3.2.1]octan-3-yl)-6-(((2R,7aS)-2-fluorotetrahydro-1H-pyrrolizin-7a(5H)-yl)methoxy)-1,5-naphthyridin-3-yl)-2-fluoro-6-hydroxynaphthalen-1-yl)ethan-1-one] showed a concentration for half-maximal inhibition (IC50) at KRAS G12D of 1500 nM.

In the case of `C=C(F)C(=O)N1CCN(c2cc(OCC34CCCN3CCC4)nc3cc(-c4cccc5cccc(Cl)c45)cnc23)C[C@@H]1CC#N` [Example 6, (S)-2-(4-(7-(8-chloronaphthalen-1-yl)-2-((tetrahydro-1H-pyrrolizin-7a(5H)-yl)methoxy)-1,5-naphthyridin-4-yl)-1-(2-fluoroacryloyl)piperazin-2-yl)acetonitrile], the half-inhibitory concentration (IC50) at KRAS G12C [1] turned out to be 59 nM; against KRAS G12C [3], 334 nM.

On to `C=C(F)C(=O)N1CCN(c2cc(OC[C@@]34CCCN3C[C@H](F)C4)nc3cc(-c4cccc5cccc(Cl)c45)cnc23)C[C@@H]1CC#N` [Example 8, 2-((S)-4-(7-(8-chloronaphthalen-1-yl)-2-(((2R,7aS)-2-fluorotetrahydro-1H-pyrrolizin-7a(5H)-yl)methoxy)-1,5-naphthyridin-4-yl)-1-(2-fluoroacryloyl)piperazin-2-yl)acetonitrile], for which it took 65 nM to reach half-maximal inhibition on KRAS G12C [1] (IC50).

For the compound `Oc1cc(-c2cnc3c(N4C[C@H]5CC[C@@H](C4)N5)cc(OCC45CCCN4CCC5)nc3c2)c2ccccc2c1` [Example 4, 4-(8-((1R,5S)-3,8-Diazabicyclo[3.2.1]octan-3-yl)-6-((tetrahydro-1H-pyrrolizin-7a(5H)-yl)methoxy)-1,5-naphthyridin-3-yl)naphthalen-2-ol], the IC50 on KRAS G12D was 1000 nM.

Take `C=CC(=O)N1CCN(c2cc(OC[C@@]34CCCN3C[C@H](F)C4)nc3cc(-c4cccc5cccc(Cl)c45)cnc23)C[C@@H]1CC#N` [Example 7, 2-((S)-1-acryloyl-4-(7-(8-chloronaphthalen-1-yl)-2-(((2R,7aS)-2-fluorotetrahydro-1H-pyrrolizin-7a(5H)-yl)methoxy)-1,5-naphthyridin-4-yl)piperazin-2-yl)acetonitrile]: the IC50 at KRAS G12C [1] is 31 nM.

Turning to `C=CC(=O)N1CCN(c2cc(OC[C@@H]3CCCN3C)nc3cc(-c4cccc5cccc(Cl)c45)cnc23)C[C@@H]1CC#N` [Example 1, 2-((S)-1-Acryloyl-4-(7-(8-chloronaphthalen-1-yl)-2-(((S)-1-methylpyrrolidin-2-yl)methoxy)-1,5-naphthyridin-4-yl)piperazin-2-yl)acetonitrile], the values for the half-inhibitory concentration (IC50) at KRAS G12C [1] and on KRAS G12C [3] were 38 nM and 4.4 nM, respectively.

At KRAS G12C [3], `Cn1cnc(Cn2ccc3ccc(CNCc4[nH]c5ccccc5c4[C@H]4NC(=O)c5ccc(O)cc54)cc32)c1` [BI-2852, reference compound] gave an IC50 of 320 nM.

In the case of `CN[C@@H]1C[C@H]2O[C@@](C)([C@@H]1OC)n1c3ccccc3c3c4c(c5c6ccccc6n2c5c31)C(=O)NC4` [Staurosporine, staurosporine, reference compound], the IC50 in the series with MIA PaCa-2 cells was 249 nM.
